Measurements: patent publication US11167006B2 (Shanghai Tianci Life Science Development Co., Ltd., priority 2016, dated 2021)
Square brackets hold non-standard residues; d marks the D form. Peptide text beside a SMILES is read from it. NMeY = CN[C@@H](Cc1ccc(O)cc1)C(=O)O; NMeF = CN[C@@H](Cc1ccccc1)C(=O)O

The molecules below were run on acute pain caused by photothermal therapy in male mice of Kunming strain (assay: Mouse photothermal tail flick analgesia experiment). Details: lateral ventricle injection.
Type: in vivo
Description: After the drug was injected into the lateral ventricle, intrathecal, subcutaneous, and intraperitoneal, the modulating activity on pain was measured by the photothermal tail flick test in mouse.
In the lateral ventricle administration, the lateral ventricle tube-buried surgery of the mouse should be performed in advance to ensure the accuracy of the drug injection site. A brain stereotaxic instrument was used in the lateral ventricle tube-buried surgery of the mouse. Male mice of Kunming strain, weighing 21±2 g; brain stereotaxic instrument is Jiangwan I. After the mice were anesthetized with sodium pentobarbital (i.p., 80 mg/kg mouse body weight), the hair in the head surgery area of the mouse was cut off and the mouse was placed on the brain stereotactic instrument and fixed. The surgery area was disinfected with iodophor, the scalp was opened along the sagittal suture to reveal the skull and the position of the anterior fontanelle can be found. 3 mm backward and 1 mm left/right from the anterior fontanelle, the upper position of the lateral ventricle can be found. A self-made stainless steel tube (a section of 24-gauge, which is connected to a small section of PE-10 tube) is inserted 3 mm downward according to the above position, which is the lateral ventricle. A section of stainless steel string (28-gauge) is inserted into the above-mentioned steel tube to prevent cerebrospinal fluid spillage and foreign matter infection and block the steel pipe. The steel tube is fixed with medical dental powder and glue, and after solidification, the wound is sutured. After the surgery, the mice were recovered tier 4 days, and the follow-up experiment was started on the 5th day. Surgical instruments, stainless steel tubes, etc. involved in the experiment need to be disinfected before the surgery. The mouse lateral ventricle was injected with 4 μl of the drug each time, and then the steel tube was rinsed with 1 μl of physiological saline.
Spinal cord level administration is performed by intrathecal injection in conscious mice, and the specific procedure is described in the method reported by Hylden and Wilcox (Eur. J. Pharmacol. 1980, 67: 313). A 25 μL microinjector was inserted directly into the subarachnoid space between L5 and L6.
The intraperitoneal administration was directly injected using a 1 mL syringe at an injection volume of 10 μl/g body weight. At the time of injection, the mouse was held by left hand with their abdomen facing up and the head was at low position while the tail was at high position. The side of the midline of the abdomen was taken, the needle hole of the syringe was upward, the needle tip penetrates into the skin in a direction less than 20 degrees, the needle tip was slightly pushed in the direction of the mouse head and sticking abdominal wall, and then punctures into the abdominal cavity in the direction of 45 degrees, and was withdrawn to confirm that it has not been pierced into the blood vessel or the intestine, afterwards the drug solution is slowly pushed out.
Subcutaneous injection was also administered directly using a 1 mL syringe in an injection volume of 10 μl/g body weight. At the time of injection, the neck and tail of the mouse were fixed in the left hand, and the head and body were inclined downward at 45 degrees. The needle hole of the syringe is upward, the needle tip is slowly pierced into the skin on the right side of the back center line at an angle of less than 20 degrees, and the needle tip is lightly picked up to confirm that there is no piercing, afterwards the drug solution is slowly pushed out.
Male mice of Kunming strain were used to detect the effects of drugs on pain perception using a photothermal tail flick instrument. The ambient temperature is controlled at 22±1° C., and the experimental animals are free to eat and drink. The basic tail flick incubation period (3-5 seconds) was determined prior to administration, and mice that were too sensitive or dull were discarded. […]
In the case of `CSCC[C@@H](NC(=O)[C@H](Cc1ccccc1)NC(=O)CNC(=O)[C@@H](C)NC(=O)[C@@H](N)Cc1ccc(O)cc1)C(=O)N1CCC[C@H]1C(=O)N[C@@H](CCC(N)=O)C(=O)N[C@@H](CCCNC(=N)N)C(=O)N[C@@H](Cc1ccccc1)C(N)=O` [Compound 6, Tyr-D-Ala-Gly-Phe-D-Met-Pro-Gln-Arg-Phe-NH2] (H-Y[dA]GF[dM]PQRF-NH2), the “ED50 value (nmol) (95% confidence interval), analgesic activity” value is reported as 0.3986 (0.3716 to 0.4275) nmol. In the case of `CC(C)C[C@H](NC(=O)[C@H](Cc1ccccc1)NC(=O)CNC(=O)[C@@H](C)NC(=O)[C@@H](N)Cc1ccc(O)cc1)C(=O)N1CCC[C@H]1C(=O)N[C@@H](CCC(N)=O)C(=O)N[C@@H](CCCNC(=N)N)C(=O)N[C@@H](Cc1ccccc1)C(N)=O` [Compound 4] (H-Y[dA]GFLPQRF-NH2), the “ED50 value (nmol) (95% confidence interval), analgesic activity” value is reported as 0.1865 (0.1509 to 0.2304) nmol. With `CSCC[C@H](NC(=O)[C@H](Cc1ccccc1)NC(=O)CNC(=O)[C@@H](C)NC(=O)[C@@H](N)Cc1ccc(O)cc1)C(=O)N1CCC[C@H]1C(=O)N[C@@H](CCC(N)=O)C(=O)N[C@@H](CCCNC(=N)N)C(=O)N[C@@H](Cc1ccccc1)C(N)=O` [Compound 5] (H-Y[dA]GFMPQRF-NH2) the “ED50 value (nmol) (95% confidence interval), analgesic activity” value was 0.2957 (0.2637 to 0.3338) nmol. `C[C@@H](NC(=O)[C@@H](N)Cc1ccc(O)cc1)C(=O)NCC(=O)N(C)[C@@H](Cc1ccccc1)C(=O)N[C@@H](CCC(N)=O)C(=O)N1CCC[C@H]1C(=O)N[C@@H](CCC(N)=O)C(=O)N[C@@H](CCCNC(=N)N)C(=O)N[C@@H](Cc1ccccc1)C(N)=O` [Compound 2, Tyr-D-Ala-Gly-NMe-Phe-Gln-Pro-Gln-Arg-Phe-NH2] (H-Y[dA]G[NMeF]QPQRF-NH2) was tested, and the “ED50 value (nmol) (95% confidence interval), analgesic activity” value was 0.3862 (0.3590 to 0.4154) nmol. `CN[C@@H](Cc1ccc(O)cc1)C(=O)N[C@H](C)C(=O)NCC(=O)N[C@@H](Cc1ccccc1)C(=O)N[C@@H](CCC(N)=O)C(=O)N1CCC[C@H]1C(=O)N[C@@H](CCC(N)=O)C(=O)N[C@@H](CCCNC(=N)N)C(=O)N[C@@H](Cc1ccccc1)C(N)=O` [Compound 1] (H-[NMeY][dA]GFQPQRF-NH2) was tested, and the “ED50 value (nmol) (95% confidence interval), analgesic activity” value was 1.2980 (1.2000 to 1.4050) nmol. In the case of `C[C@@H](NC(=O)[C@@H](N)Cc1ccc(O)cc1)C(=O)NCC(=O)N[C@@H](Cc1ccccc1)C(=O)NCC(=O)N1CCC[C@H]1C(=O)N[C@@H](CCC(N)=O)C(=O)N[C@@H](CCCNC(=N)N)C(=O)N[C@@H](Cc1ccccc1)C(N)=O` [Compound 3] (H-Y[dA]GFGPQRF-NH2), the “ED50 value (nmol) (95% confidence interval), analgesic activity” value is reported as 0.4172 (0.3798 to 0.4583) nmol. In the case of `C[C@@H](NC(=O)[C@@H](N)Cc1ccc(O)cc1)C(=O)NCC(=O)N[C@@H](Cc1ccccc1)C(=O)N[C@H](C)C(=O)N1CCC[C@H]1C(=O)N[C@@H](CCC(N)=O)C(=O)N[C@@H](CCCNC(=N)N)C(=O)N[C@@H](Cc1ccccc1)C(N)=O` [Compound 8, Tyr-D-Ala-Gly-Phe-D-Ala-Pro-Gln-Arg-Phe-NH2] (H-Y[dA]GF[dA]PQRF-NH2), the “ED50 value (nmol) (95% confidence interval), analgesic activity” value is reported as 0.3361 (0.2864 to 0.3944) nmol. For `CC(C)C[C@@H](NC(=O)[C@H](Cc1ccccc1)NC(=O)CNC(=O)[C@@H](C)NC(=O)[C@@H](N)Cc1ccc(O)cc1)C(=O)N1CCC[C@H]1C(=O)N[C@@H](CCC(N)=O)C(=O)N[C@@H](CCCNC(=N)N)C(=O)N[C@@H](Cc1ccccc1)C(N)=O` [Compound 7, Tyr-D-Ala-Gly-Phe-D-Leu-Pro-Gln-Arg-Phe-NH2] (H-Y[dA]GF[dL]PQRF-NH2), the “ED50 value (nmol) (95% confidence interval), analgesic activity” value was 0.4367 (0.3865 to 0.4934) nmol.
